Consider 18 compounds from patent US12522601B2, “1,3,4-oxadiazole derivative compounds as histone deacetylase 6 inhibitor, and the pharmaceutical composition comprising the same” (CHONG KUN DANG PHARMACEUTICAL CORP., priority 2020, dated 2026).

Where only a bound is given, the exact number is not on record here.

For one experiment, the target named is T1, human recombinant HDAC6 (Homo sapiens, UniProt Q9UBN7).
T1 construct: purchased Calbiochem Inc. 382180
T1 sequence (Q9UBN7 1-1215): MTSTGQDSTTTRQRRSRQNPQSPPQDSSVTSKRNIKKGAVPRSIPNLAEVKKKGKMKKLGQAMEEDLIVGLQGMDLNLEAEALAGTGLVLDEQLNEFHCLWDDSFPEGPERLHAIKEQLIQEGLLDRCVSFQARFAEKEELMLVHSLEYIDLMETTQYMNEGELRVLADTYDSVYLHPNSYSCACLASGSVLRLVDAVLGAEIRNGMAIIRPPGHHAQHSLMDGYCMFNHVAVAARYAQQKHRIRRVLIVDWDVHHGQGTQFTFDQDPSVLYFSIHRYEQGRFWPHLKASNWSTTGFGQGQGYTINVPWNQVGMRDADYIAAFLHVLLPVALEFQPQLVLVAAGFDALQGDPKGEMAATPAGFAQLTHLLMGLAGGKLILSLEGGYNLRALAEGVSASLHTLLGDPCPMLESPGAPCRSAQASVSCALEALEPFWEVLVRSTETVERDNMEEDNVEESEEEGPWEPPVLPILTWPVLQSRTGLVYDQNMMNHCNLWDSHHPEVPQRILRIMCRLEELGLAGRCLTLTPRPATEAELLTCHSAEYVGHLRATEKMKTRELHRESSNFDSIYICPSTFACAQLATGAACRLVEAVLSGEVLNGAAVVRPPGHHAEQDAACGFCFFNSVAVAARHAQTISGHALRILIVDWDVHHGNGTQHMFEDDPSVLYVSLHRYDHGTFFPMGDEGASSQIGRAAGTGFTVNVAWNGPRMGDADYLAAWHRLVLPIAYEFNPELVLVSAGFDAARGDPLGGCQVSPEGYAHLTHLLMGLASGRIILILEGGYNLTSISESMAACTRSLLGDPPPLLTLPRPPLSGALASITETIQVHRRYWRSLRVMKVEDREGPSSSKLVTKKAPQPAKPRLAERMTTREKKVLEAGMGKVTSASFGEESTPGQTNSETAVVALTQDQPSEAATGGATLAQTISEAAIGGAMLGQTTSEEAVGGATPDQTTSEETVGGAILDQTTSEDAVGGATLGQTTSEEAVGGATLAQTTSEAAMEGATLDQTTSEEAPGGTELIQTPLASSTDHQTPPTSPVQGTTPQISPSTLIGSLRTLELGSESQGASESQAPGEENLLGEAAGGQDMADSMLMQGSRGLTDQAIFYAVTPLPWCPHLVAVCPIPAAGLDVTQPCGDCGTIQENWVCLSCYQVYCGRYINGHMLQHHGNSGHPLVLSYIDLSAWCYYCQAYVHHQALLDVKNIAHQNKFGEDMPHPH
The experiment is described as follows: In vitro HDAC enzyme activity inhibition assay, HDAC6 (HDAC Fluorimetric Drug Discovery Kit). The experiment is classed as biochemical. The following applies: for HDAC6 Selectivity (fold): HDAC6 versus HDAC1; for IC50: human recombinant HDAC6, same protocol as the HDAC1 test. The gist of the method:
(§1)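 Both HDAC1 and HDAC6 (human recombinant, 0.3 μg) tested identically: 10 μM fluorogenic Fluor de Lys-SIRT1 substrate, reaction 60 min at 30° C, developer added for 30 min. IC50 calculated from Ex 360/Em 460 signal over 5-fold serial dilutions.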

The next experiment deals with T2, human recombinant HDAC1 (Homo sapiens, UniProt Q13547).
T2 construct: purchased Enzo Life Sciences, Inc. BML-SE456
T2 sequence (Q13547 whole entry): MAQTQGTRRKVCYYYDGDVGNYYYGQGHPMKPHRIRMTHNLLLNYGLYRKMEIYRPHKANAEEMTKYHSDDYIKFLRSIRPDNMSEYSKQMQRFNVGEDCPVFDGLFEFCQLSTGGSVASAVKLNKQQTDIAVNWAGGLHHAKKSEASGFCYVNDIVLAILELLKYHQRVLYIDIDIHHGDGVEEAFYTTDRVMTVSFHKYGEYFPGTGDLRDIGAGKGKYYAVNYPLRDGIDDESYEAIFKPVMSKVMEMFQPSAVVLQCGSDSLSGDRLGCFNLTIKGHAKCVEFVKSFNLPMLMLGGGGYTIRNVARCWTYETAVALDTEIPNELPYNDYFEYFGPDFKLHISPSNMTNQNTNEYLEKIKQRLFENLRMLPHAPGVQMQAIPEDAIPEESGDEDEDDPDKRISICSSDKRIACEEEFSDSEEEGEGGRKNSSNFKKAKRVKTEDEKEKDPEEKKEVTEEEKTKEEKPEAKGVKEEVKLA
The experiment is described as follows: In vitro HDAC enzyme activity inhibition assay, HDAC1 (HDAC Fluorimetric Drug Discovery Kit). It is filed as biochemical. The following applies: human recombinant HDAC1, Fluor de Lys-SIRT1 substrate 10 μM, 30° C. for 60 minutes. The procedure, abridged: as §1

On to `O=C(N1CCN(c2ncccn2)CC1)N(Cc1cn2ccc(-c3nnc(C(F)F)o3)cc2n1)c1cccc(F)c1` [Compound 4101, N-((7-(5-(difluoromethyl)-1,3,4-oxadiazol-2-yl)imidazo[1,2-a]pyridin-2-yl)methyl)-N-(3-fluorophenyl)-4-(pyrimidin-2-yl)piperazine-1-carboxamide], for which, at human recombinant HDAC6, the “HDAC6 Selectivity (fold)” value is on record as 464 fold and the IC50 was 108 nM. Also, at human recombinant HDAC1, the 50% inhibitory concentration (IC50) was over 50000 nM.

Take `CC(CO)N1CCC(C(=O)N(Cc2cn3ccc(-c4nnc(C(F)F)o4)cc3n2)c2ccccc2)CC1` (stereo not drawn) [Compound 4117, N-((7-(5-(difluoromethyl)-1,3,4-oxadiazol-2-yl)imidazo[1,2-a]pyridin-2-yl)methyl)-1-(1-hydroxypropan-2-yl)-N-phenylpiperidine-4-carboxamide]: on human recombinant HDAC6, the “HDAC6 Selectivity (fold)” value is given as 133 fold and the IC50 stood at 377 nM. Further, the IC50 at human recombinant HDAC1 was over 50000 nM.

As to `O=C(C1CN(C2CCC2)C1)N(Cc1cn2ccc(-c3nnc(C(F)F)o3)cc2n1)c1ccccc1` [Compound 4162, 1-cyclobutyl-N-((7-(5-(difluoromethyl)-1,3,4-oxadiazol-2-yl)imidazo[1,2-a]pyridin-2-yl)methyl)-N-phenylazetidine-3-carboxamide], on human recombinant HDAC6, the “HDAC6 Selectivity (fold)” value came out at 140 fold and the IC50 is 358 nM. For the same compound, the IC50 at human recombinant HDAC1 was over 50000 nM.

Consider `O=C(CO)N1CC(C(=O)N(Cc2cn3ccc(-c4nnc(C(F)F)o4)cc3n2)c2cccc(F)c2)C1` [Compound 4199, N-((7-(5-(difluoromethyl)-1,3,4-oxadiazol-2-yl)imidazo[1,2-a]pyridin-2-yl)methyl)-N-(3-fluorophenyl)-1-(2-hydroxyacetyl) azetidine-3-carboxamide], for which, at human recombinant HDAC6, the “HDAC6 Selectivity (fold)” value came out at 200 fold and the IC50 stood at 250 nM. In addition, on human recombinant HDAC1, the IC50 was over 50000 nM.

For the compound `O=C(CO)N1CCC(C(=O)N(Cc2cn3ccc(-c4nnc(C(F)F)o4)cc3n2)c2cccc(F)c2)CC1` [Compound 4149, N-((7-(5-(difluoromethyl)-1,3,4-oxadiazol-2-yl)imidazo[1,2-a]pyridin-2-yl)methyl)-N-(3-fluorophenyl)-1-(2-hydroxyacetyl)piperidine-4-carboxamide], at human recombinant HDAC6, the “HDAC6 Selectivity (fold)” value came to 335 fold and the IC50 came out at 149 nM. Further, the IC50 on human recombinant HDAC1 was over 50000 nM.

As to `O=C(C1COC1)N1CC(C(=O)N(Cc2cn3ccc(-c4nnc(C(F)F)o4)cc3n2)c2cccc(F)c2)C1` [Compound 4201, N-((7-(5-(difluoromethyl)-1,3,4-oxadiazol-2-yl)imidazo[1,2-a]pyridin-2-yl)methyl)-N-(3-fluorophenyl)-1-(oxetane-3-carbonyl) azetidine-3-carboxamide], at human recombinant HDAC6, the “HDAC6 Selectivity (fold)” value worked out at 177 fold and the IC50 stood at 283 nM. Also, the IC50 on human recombinant HDAC1 is over 50000 nM.

`Cc1ccc(Cc2cn3ccc(-c4nnc(C(F)F)o4)cc3n2)cc1` [Compound 3589, 2-(difluoromethyl)-5-(2-(4-methylbenzyl)imidazo[1,2-a]pyridin-7-yl)-1,3,4-oxadiazole]: on human recombinant HDAC6, the “HDAC6 Selectivity (fold)” value is recorded as 94 fold and the concentration for half-maximal inhibition (IC50) amounted to 530 nM. Further, the IC50 on human recombinant HDAC1 was over 50000 nM.

On to `FC(F)c1nnc(-c2ccn3cc(COc4ccc(C(F)(F)F)cc4)nc3c2)o1` [Compound 3724, 2-(difluoromethyl)-5-(2-((4-(trifluoromethyl)phenoxy)methyl)imidazo[1,2-a]pyridin-7-yl)-1,3,4-oxadiazole], for which, on human recombinant HDAC6, the “HDAC6 Selectivity (fold)” value is 56 fold and the IC50 was 893 nM. In addition, the IC50 at human recombinant HDAC1 was over 50000 nM.

As for `CC(=O)N1CCN(C(=O)N(Cc2cn3ccc(-c4nnc(C(F)F)o4)cc3n2)c2cccc(F)c2)CC1` [Compound 4092, 4-acetyl-N-((7-(5-(difluoromethyl)-1,3,4-oxadiazol-2-yl)imidazo[1,2-a]pyridin-2-yl)methyl)-N-(3-fluorophenyl)piperazine-1-carboxamide], at human recombinant HDAC6, the “HDAC6 Selectivity (fold)” value amounted to 187 fold and the IC50 was 267 nM. Also, the IC50 on human recombinant HDAC1 is over 50000 nM.

Regarding `O=C(CO)N1CCN(C(=O)N(Cc2cn3ccc(-c4nnc(C(F)F)o4)cc3n2)c2cccc(F)c2)CC1` [Compound 4094, N-((7-(5-(difluoromethyl)-1,3,4-oxadiazol-2-yl)imidazo[1,2-a]pyridin-2-yl)methyl)-N-(3-fluorophenyl)-4-(2-hydroxyacetyl)piperazine-1-carboxamide], on human recombinant HDAC6, the “HDAC6 Selectivity (fold)” value was 215 fold and the IC50 came to 232 nM. Moreover, the 50% inhibitory concentration (IC50) at human recombinant HDAC1 is over 50000 nM.

Regarding `O=C(C1CCC1)N1CCC(C(=O)N(Cc2cn3ccc(-c4nnc(C(F)F)o4)cc3n2)c2cccc(F)c2)CC1` [Compound 4150, 1-(cyclobutanecarbonyl)-N-((7-(5-(difluoromethyl)-1,3,4-oxadiazol-2-yl)imidazo[1,2-a]pyridine-2-yl)methyl)-N-(3-fluorophenyl)piperidine-4-carboxamide], the “HDAC6 Selectivity (fold)” value at human recombinant HDAC6 is listed as 234 fold. Besides, the IC50 is 214 nM at human recombinant HDAC6 and over 50000 nM at human recombinant HDAC1.

In the case of `O=C(N1CCN(C2CCC(F)(F)CC2)CC1)N(Cc1cn2ccc(-c3nnc(C(F)F)o3)cc2n1)c1ccccc1` [Compound 4039, 4-(4,4-difluorocyclohexyl)-N-((7-(5-(difluoromethyl)-1,3,4-oxadiazol-2-yl)imidazo[1,2-a]pyridin-2-yl)methyl)-N-phenylpiperazine-1-carboxamide], at human recombinant HDAC6, the “HDAC6 Selectivity (fold)” value was found to be 338 fold. Further, the IC50 on human recombinant HDAC6 is 148 nM; at human recombinant HDAC1 it was over 50000 nM.

Regarding `CN1CCN(C(=O)N(Cc2cn3ccc(-c4nnc(C(F)F)o4)cc3n2)c2cccc(F)c2)CC1` [Compound 4083, N-((7-(5-(difluoromethyl)-1,3,4-oxadiazol-2-yl)imidazo[1,2-a]pyridin-2-yl)methyl)-N-(3-fluorophenyl)-4-methylpiperazine-1-carboxamide], at human recombinant HDAC6, the “HDAC6 Selectivity (fold)” value is reported as 108 fold and the IC50 stood at 465 nM. At human recombinant HDAC1, the IC50 was over 50000 nM.

On to `CCC(=O)N1CCC(C(=O)N(Cc2cn3ccc(-c4nnc(C(F)F)o4)cc3n2)c2ccccc2)CC1` [Compound 4123, N-((7-(5-(difluoromethyl)-1,3,4-oxadiazol-2-yl)imidazo[1,2-a]pyridin-2-yl)methyl)-N-phenyl-1-propionylpiperidine-4-carboxamide], for which, at human recombinant HDAC6, the “HDAC6 Selectivity (fold)” value amounted to 163 fold and the half-maximal inhibitory concentration (IC50) stood at 307 nM. The IC50 at human recombinant HDAC1 was over 50000 nM.

Regarding `CCC(=O)N1CC(C(=O)N(Cc2cn3ccc(-c4nnc(C(F)F)o4)cc3n2)c2cccc(F)c2)C1` [Compound 4198], on human recombinant HDAC6, the “HDAC6 Selectivity (fold)” value was 271 fold and the IC50 came to 185 nM. Moreover, the IC50 on human recombinant HDAC1 was over 50000 nM.

On to `O=C(N1CCN(C2CC3(COC3)C2)CC1)N(Cc1cn2ccc(-c3nnc(C(F)F)o3)cc2n1)c1cccc(F)c1` [Compound 4621], for which, at human recombinant HDAC6, the “HDAC6 Selectivity (fold)” value was found to be 326 fold and the IC50 was 153 nM. In addition, at human recombinant HDAC1, the IC50 is over 50000 nM.

As for `CN1CC(C(=O)N(Cc2cn3ccc(-c4nnc(C(F)F)o4)cc3n2)c2cccc(F)c2)C1` [Compound 4188, N-((7-(5-(difluoromethyl)-1,3,4-oxadiazol-2-yl)imidazo[1,2-a]pyridin-2-yl)methyl)-N-(3-fluorophenyl)-1-methylazetidine-3-carboxamide], at human recombinant HDAC6, the “HDAC6 Selectivity (fold)” value is 134 fold. Besides, the IC50 on human recombinant HDAC6 was 373 nM; at human recombinant HDAC1 it was over 50000 nM.

In the case of `CCN1CCC(C(=O)N(Cc2cn3ccc(-c4nnc(C(F)F)o4)cc3n2)c2cccc(F)c2)CC1` [Compound 4138, N-((7-(5-(difluoromethyl)-1,3,4-oxadiazol-2-yl)imidazo[1,2-a]pyridin-2-yl)methyl)-1-ethyl-N-(3-fluorophenyl)piperidine-4-carboxamide], on human recombinant HDAC6, the “HDAC6 Selectivity (fold)” value was found to be 292 fold and the IC50 is 171 nM. Besides, the IC50 on human recombinant HDAC1 was over 50000 nM.

Broadly, the IC50 is the midpoint of a concentration-inhibition curve.
